# Like-named read-outs stand apart in the source and are kept apart here.
# Legend:
# Format in all cases: in vivo, human
# [1] = system: subjects with Huntington's disease; assay: Example 1: tolerability, safety and clinical (UHDRS) measures of creatine 8 g/day in Huntington's disease, randomized placebo-controlled; design: Serum creatinine: unit: mg/dL; conditions: for Serious adverse events / Study withdrawal before week 24: monohydrate
# Method: Study design. Sixty-four subjects were enrolled at four sites. Eligible subjects were randomized to 8 g/day of creatine monohydrate or placebo by computer-generated blocked randomization with site stratification. Treatment was administered as chewable wafers twice daily for 16 weeks. A medical monitor and independent safety committee reviewed clinical data monthly. Consent, study procedures, and case report forms were approved by the institutional review board at each site. Blood samples for analysis of serum biomarkers were obtained with consent from 30 age-appropriate individuals without neurological illnesses.
# Eligibility criteria. Eligible subjects were 18 years of age and older with a diagnosis of Huntington's disease confirmed by genetic testing, a total functional capacity score of ≧5, and a caregiver to witness consent and monitor compliance. Exclusion criteria included previous creatine exposure within 30 days of baseline; underlying hematological, hepatic, or renal disease; screening white blood cell count <3,800/mm^3; creatinine >2.0 mg/dL or alanine aminotransferase greater than twice the upper normal limit; or unstable medical/psychiatric illness.
# (§1) Study protocol. Subjects were screened within 25 days of randomization (baseline visit). Screening included assessment of eligibility criteria, medical history, physical examination, Unified Huntington's Disease Rating Scale (UHDRS), EKG, DNA analysis, complete blood count, chemistry panel, and urinalysis. Subjects were on study drug (creatine or placebo) for 16 weeks, followed by an 8-week washout. Study visits occurred at baseline, weeks 8, 16, and 24 with telephone contacts at weeks 1, 10 and 20. Physical examination was done at screening and week 16. UHDRS scores, vital signs, adverse event assessment, and safety laboratory tests were repeated at all visits. Blood was collected for serum creatine levels and serum 8-hydroxy-2′-deoxyguanosine (8OH2′dG), a measure of oxidative injury affecting DNA. The later was analyzed in the samples from two sites. Magnetic resonance spectroscopy (MRS; STEAM; TR/TE=6000/20 milliseconds) of frontal cortex (voxel size=56 cc) and occipital cortex (voxel size=18 cc) performed at one site was analyzed for this report. Subject compliance was assessed by wafer counts.
# Statistical analysis. The primary outcome measure was tolerability. […] Within 27 subjects per group, there was a 94% power to detect an absolute difference of 50% or more between the placebo group and the active treatment group assuming a 15% dropout rate. In accordance with intent to treat, all randomized subjects were included in safety and tolerability analysis. Tolerability was assessed by comparing the proportion of treatment failures in creatine and placebo groups using χ^2 test with continuity correction. As the primary interest was in detecting intolerability in the active group, a one-sided test was used (significance=0.05). This was also applied to assess adverse events and laboratory abnormalities. The laboratory score changes from screening were analyzed by repeated-measures analysis of variance (ANOVA), and the differences between visits were analyzed by paired t test. Demographic and baseline variables were summarized for each group, and comparisons made using Fischer's exact test and continuous variables were compared using t test. Changes in UHDRS motor, cognitive, behavioral, and functional component subscores were measured at baseline and weeks 8, 16, and 24 and analyzed by mixed-model ANOVA.
# [2] = system: serum 8-hydroxy-2′-deoxyguanosine (8OH2′dG); assay: Example 1: serum 8OH2'dG biomarker of oxidative injury to DNA; conditions: baseline to 16 weeks, 8 g/day; SD=13.93; placebo increase 5.87; p<0.0042
# From the text: as §1
# [3] = system: symptomatic subjects with Huntington's disease; assay: Example 3: open-label dose escalation (10-40 grams per day), tolerability, safety and UHDRS
# Method: (§2) A two-phase open-label study was conducted to better determine an optimal dose of creatine symptomatic subjects with Huntington's disease. A dose-escalation study (10-40 grams per day) was conducted to determine the maximally tolerated dose (MTD) followed by a de-escalation phase to assess whether brain and serum levels of creatine might be maximal at doses lower than the MTD. Ten subjects were enrolled and followed prospectively for two weeks at each done level increasing in 5-gram increments during dose escalation that lasted 13 weeks. Assessments at each visit included UHDRS, EKG, vital signs, clinical safety and research labs. MRI spectroscopy was conducted prior to baseline at peak done (40 grams) and one month after de-escalation to either 30 or 15 grams daily. To determine an optimal dose, pharmacokinetic as well as clinical data were considered. Once the maximal dose was reached, subjects were assigned one of two lower doses previously taking (15 grams a day (n=5) or 30 grams a day (n=5)). Serum creatine was assessed at baseline, at the end of each 2-week dose escalation step and at the end of the de-escalation phase to assess the correspondence between serum and brain levels of creatine at steady state.
# serum 8OH2′dG = assay: Example 3: serum 8OH2'dG suppression in dose escalation
# Method: as §2
# [4] = system: symptomatic subjects with Huntington's disease
# Method: as §2
# Subjects at the end of this study were given the option to continue a long-term study to evaluate the long-term safety and tolerability of high dosage of creatine. Subjects have been followed for nine months on creatine. […] Adverse events have been infrequent and mild to moderate in grade and 30 grams daily creatine has been well-tolerated for 9 months. Laboratory abnormalities have been mild. […] Thus long term administration of 30 grams daily of creatine appears to be safe and well-tolerated.
# [5] = 8 g/day, n = 32, frequency, listed as creatine
# [6] = adverse event frequency, 8 g/day, n = 32
# [7] = De-escalation Baseline, 15 g/day, N 5
# [8] = De-escalation Baseline, 30 g/day, N 5
# [9] = Week 24 (Visit 4), 30 g/day, N 10
smiles,measurement,setting,value
"CN(CC(=O)O)C(=N)N [Creatine, creatine monohydrate]",Laboratory abnormalities,[1]; 8 g/day,mild reversible serum creatinine and alkaline phosphatase elevations
same,Tolerability,"[1]; 8 g/day, chewable wafers twice daily, 16 weeks",well tolerated
same,"All adverse events: mild, moderate and severe, (%)","[1]; 8 g/day, n = 32",86.9%
same,"All adverse events: mild, moderate and severe, no.","[1]; 8 g/day, n = 32, frequency",26
same,Serious adverse events,[1]; [5],three
same,Study withdrawal before week 24,[1]; [5],three
same,Serious adverse events,"[1]; 8 g/day, n = 32, frequency",3
same,Study withdrawal before week 24,"[1]; 8 g/day, n = 32, frequency",2
same,Body mass index and UHDRS subscores compared with baseline,"[1]; 8 g/day, paired t test",did not change with treatment
same,Apathy,[1]; [6],1
same,Cough,[1]; [6],1
same,Depression,[1]; [6],4
same,Dizziness,[1]; [6],1
same,Dysphagia,[1]; [6],1
same,Fall,[1]; [6],3
same,Hematuria,[1]; [6],1
same,Increased movements,[1]; [6],1
same,Irritability,[1]; [6],3
same,Lethargy,[1]; [6],2
same,Vomiting,[1]; [6],1
same,Serum creatinine,"[1]; creatine group by week 8, from 0.88±0.19, p<0.01, elevated at week 16, baseline at washout, in mg/dL (unit assumed)",1.04±0.24
same,Average reduction of serum 8OH2′dG,[2],9.11 pg/mL
same,Dose tolerated by all subjects during dose escalation,"[3]; 10 subjects, 5-gram increments, two weeks per dose level, no withdrawals",up to 40 grams/day
same,Changes in UHDRS subscores,[3]; dose escalation 10-40 grams per day,not significant
same,Adverse events at high doses,[3]; in vivo,increased numbers of adverse events
same,Average creatinine level,[3]; in vivo,1.28 ± 0.16 mg/dL
same,BUN levels,[3]; in vivo,did not increase
same,"Serious adverse events, laboratory abnormalities, EKG",[3]; in vivo,"no serious adverse events, no significant laboratory abnormalities and no EKG alterations"
same,Tolerability at selected dose,[3]; in vivo,excellent tolerability
same,"Doses associated with maximum suppression of serum 8OH2′dG, levels similar to normal controls",serum 8OH2′dG,greater than 25 grams daily
same,Serum 8OH2′dG,serum 8OH2′dG; greater than seen with 8 grams per day,dose dependent suppression
same,Independence Score,[4]; [7],75.0 (8.7)
same,Stroop Color Naming,[4]; [7],52.8 (22.9)
same,Stroop Interference,[4]; [7],23.8 (13.1)
same,Stroop Word Reading,[4]; [7],56.0 (24.3)
same,Symbol Digit Modalities Test,[4]; [7],29.0 (10.6)
same,Total Chorea Score,[4]; [7],5.5 (1.7)
same,Total Functional Assessment,[4]; [7],10.6 (9.8)
same,Total Functional Capacity,[4]; [7],8.8 (1.8)
same,Verbal Fluency Test,[4]; [7],15.8 (16.0)
same,Independence Score,[4]; [8],82.5 (14.4)
same,Stroop Color Naming,[4]; [8],57.8 (24.2)
same,Stroop Interference,[4]; [8],40.0 (19.6)
same,Stroop Word Reading,[4]; [8],90.0 (24.2)
same,Symbol Digit Modalities Test,[4]; [8],34.0 (20.5)
same,Total Chorea Score,[4]; [8],7.8 (4.3)
same,Total Functional Assessment,[4]; [8],15.8 (10.2)
same,Total Functional Capacity,[4]; [8],9.8 (3.4)
same,Verbal Fluency Test,[4]; [8],28.3 (15.8)
same,Independence Score,[4]; [9],82.5 (8.9)
same,Stroop Color Naming,[4]; [9],51.7 (21.37)
same,Stroop Interference,[4]; [9],31.3 (15.23)
same,Stroop Word Reading,[4]; [9],62.7 (24.11)
same,Symbol Digit Modalities Test,[4]; [9],30.56 (12.63)
same,Total Chorea Score,[4]; [9],7.0 (4.1)
same,Total Functional Assessment,[4]; [9],19.6 (4.1)
same,Total Functional Capacity,[4]; [9],8.7 (2.2)
same,Verbal Fluency Test,[4]; [9],26.6 (17.67)
same,Serious adverse effects,"[4]; human, in vivo",no serious adverse effects
same,Tolerability,"[4]; human, in vivo",well-tolerated
same,Clinical changes (UHDRS subscores),"[4]; long-term follow-up, up to 9 months",no significant clinical changes

# Reference: US20070292403A1, “Methods of treating a neurological disorder with creatine monohydrate” (priority 2006, published 2007)
